This note sets out measurements from US8389508B2 (Glaxo Group Limited, priority 2010, dated 2013).

Each structure is given as a SMILES string. Where a name gives a salt, the structure may show the parent alone.

The target in experiment [1] is T1, human Endothelial Differentiation Gene 1 (EDG1), S1P1 receptor (Homo sapiens, UniProt P21453).
T1 construct: TEV protease site; Gal4-VP16 transcription factor; expressed in transfected cells; host or cells: EDG1-bla/U2OS (Tango GPCR-bla U2OS parental cell line)
In words: S1P1 Assay (Tango EDG1-bla/U2OS beta-lactamase reporter, agonist dose response). The conditions noted are these: EDG1-bla/U2OS cells, blue/green emission ratio, 10 point dose response, free base or salt form; read-out: pEC50 (S1P1 assay) (converted). Type of experiment: cell-based. As for the experimental part: Recombinant EDG1-bla/U2OS cells (contain the human Endothelial Differentiation Gene 1 (EDG1) linked to a TEV protease site and a Gal4-VP16 transcription factor stably integrated into the Tango GPCR-bla U2OS parental cell line) were harvested from growth medium and passaged into assay medium (Invitrogen Freestyle Expression Medium). The cells were starved for 24 hours at 37° C., 5% CO2, harvested and resuspended in assay medium at a density of ˜200,000 cells/ml. All test compounds were dissolved in DMSO at a concentration of 10 mM and were prepared in 100% DMSO to provide 10 point dose response curves. Test compounds in the free base or in a salt form were prepared by Velocity11 Bravo automation (Agilent) were added to wells in columns 2-11 and 13-22; DMSO was added to wells in columns 12 and 23 as unstimulated controls and assay medium was added to wells in columns 1 and 24 as cell-free controls. An S1P1 agonist was added to wells in row 2, columns 2-11 as stimulated controls and test compounds were added to wells in row 2, columns 13-22 and rows 3-15, columns 2-11/13-22 (row 1 and 16 were empty and not used). Compounds in solution were added to the assay plate (Greiner 781090) using an Echo (Labcyte) dose-response program (50 nl/well). The unstimulated and cell-free controls were loaded with 50 nl/well pure DMSO to ensure that the DMSO concentration was constant across the plate for all assays. 50 μl of the cell suspension was added to each well in columns 2-23 of the plate (˜10,000 cells per well). 50 μl of assay medium was added to each well in the cell-free controls (columns 1 and 24). The cells were incubated overnight at 37° C./5% CO2.
(§1) 10 μl of 6× substrate mixture (LiveBLAzer™-FRET B/G substrate (CCF4-AM) Cat # K1096 from Invitrogen, Inc.) was added to each well using Bravo automation and the plates incubated at room temperature for 2 h in the dark. The plate was finally read on EnVision using one excitation channel (409 nm) and two emission channels (460 nm and 530 nm).
(§2) The blue/green emission ratio (460 nm/530 nm) was calculated for each well, by dividing the background-subtracted Blue emission values by the background-subtracted Green emission values. The dose response curve is based on sigmoidal dose-response model. All ratio data was normalized based upon the maximum emission ratio of positive control and minimum emission ratio of negative control (DMSO) on each plate. The intrinsic activity (IA) of each compound is defined as relative response normalised to a reference compound, whose maximum response is defined as 100% after curve fitting.

The target of experiment [2] is T2, human Endothelial Differentiation G-protein Coupled Receptor 3 (EDG3), S1P3 receptor (Homo sapiens, UniProt Q99500).
T2 construct: expressed in transfected cells; host or cells: GeneBLAzer EDG3-Ga15-NFAT-bla HEK 293T
Nature of the experiment: S1P3 Assay (GeneBLAzer EDG3-Ga15-NFAT-bla HEK 293T beta-lactamase reporter, agonist dose response). The conditions noted are these: EDG3-Ga15-NFAT-bla HEK 293T cells, blue/green emission ratio, 10 point dose response, free base or salt form; read-out: pEC50 (S1P3 assay) (converted). Type of experiment: cell-based. As for the experimental part:
GeneBLAzer EDG3-Ga15-NFAT-bla HEK 293T cells (contain the human Endothelial Differentiation G-protein Coupled Receptor 3 (EDG3) and a beta-lactamase reporter gene under control of a NFAT response element and a promiscuous G Protein, Ga15, stably integrated into the GeneBLAzer Ga15-NFAT-bla HEK 293T cell line) were harvested from growth medium and suspended in assay medium (90% DMEM, 10% Charcoal-stripped FBS, 0.1 mM NEAA, 25 mM HEPES (pH 7.3), 100 U/ml penicillin, 100 μg/ml streptomycin) at a density of […]. All test compounds were dissolved in DMSO at a concentration of 10 mM and were prepared in 100% DMSO to provide 10 point dose response curves. Test compounds in the free base or in a salt form were prepared by Velocity 11 Bravo automation (Agilent) were added to wells in columns 2-11 and 13-22; DMSO was added to wells in columns 12 and 23 as unstimulated controls and assay medium was added to wells in columns 1 and 24 as cell-free controls. An S1P3 agonist was added to wells in row 2, columns 2-11 as stimulated controls and test compounds were added to wells in row 2, columns 13-22 and rows 3-15, columns 2-11/13-22 (row 1 and 16 were empty and not used). Compounds in solution were added to the assay plate (Greiner 781090) using an Echo (Labcyte) dose-response program (50 nl/well). The unstimulated and cell-free controls were loaded with 50 nl/well pure DMSO to ensure that the DMSO concentration was constant across the plate for all assays.
50 μl of the cell suspension was added to each well in columns 2-23 of the plate (˜10,000 cells per well). 50 μl of assay medium was added to each well in the cell-free controls (columns 1 and 24). The cells were incubated overnight at 37° C./5% CO2.
as §1, §2

T2 sequence (Q99500 whole entry): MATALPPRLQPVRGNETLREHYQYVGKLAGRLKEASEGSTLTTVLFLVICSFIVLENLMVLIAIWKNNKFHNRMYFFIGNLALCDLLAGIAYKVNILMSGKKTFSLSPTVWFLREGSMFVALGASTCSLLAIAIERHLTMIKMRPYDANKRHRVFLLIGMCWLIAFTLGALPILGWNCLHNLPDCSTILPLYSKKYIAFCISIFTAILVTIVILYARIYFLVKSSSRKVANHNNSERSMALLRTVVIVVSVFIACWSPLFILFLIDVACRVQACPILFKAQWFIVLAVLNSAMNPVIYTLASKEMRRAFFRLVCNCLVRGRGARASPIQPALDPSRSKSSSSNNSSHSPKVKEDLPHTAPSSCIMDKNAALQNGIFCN
T1 sequence (P21453 whole entry, the tested form may be a part): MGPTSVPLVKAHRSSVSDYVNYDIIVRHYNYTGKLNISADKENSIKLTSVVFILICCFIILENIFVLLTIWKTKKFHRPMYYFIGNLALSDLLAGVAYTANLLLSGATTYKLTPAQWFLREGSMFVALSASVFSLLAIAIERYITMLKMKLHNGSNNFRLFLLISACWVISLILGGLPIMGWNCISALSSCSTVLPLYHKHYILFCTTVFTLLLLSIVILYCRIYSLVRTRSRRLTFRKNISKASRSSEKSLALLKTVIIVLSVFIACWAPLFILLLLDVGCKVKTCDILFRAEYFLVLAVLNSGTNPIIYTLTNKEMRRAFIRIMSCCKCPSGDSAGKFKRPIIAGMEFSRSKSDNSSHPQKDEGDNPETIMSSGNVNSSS

Consider `CCc1c(CN2CCC(C(=O)O)CC2)cccc1-c1nnc(-c2ccc(OC(C)C)c(C(F)(F)F)c2)s1` [Example 1, 1-[(2-ethyl-3-{5-[4-[(1-methylethyl)oxy]-3-(trifluoromethyl)phenyl]-1,3,4-thiadiazol-2-yl}phenyl)methyl]-4-piperidinecarboxylic acid], for which the results for the EC50 in experiment [1] and in experiment [2] were under 0.001 µM and over 3.16 µM, respectively.

As for `CCc1c(CCN2CC(C(=O)O)C2)cccc1-c1nnc(-c2ccc(OC(C)C)c(C(F)(F)F)c2)s1` [Example 7, 1-[2-(2-ethyl-3-{5-[4-[(1-methylethyl)oxy]-3-(trifluoromethyl)phenyl]-1,3,4-thiadiazol-2-yl}phenyl)ethyl]-3-azetidinecarboxylic acid trifluoroacetate], the EC50 in experiment [1] is under 0.001 µM; in experiment [2], over 3.16 µM.

Take `CCc1c(CN2CCC(C(=O)O)CC2)cccc1-c1nnc(-c2ccc(CC(C)C)c(C#N)c2)s1` [Example 8, 1-[(3-{5-[3-cyano-4-(2-methylpropyl)phenyl]-1,3,4-thiadiazol-2-yl}-2-ethylphenyl)methyl]-4-piperidinecarboxylic acid trifluoroacetate]: the EC50 was under 0.001 µM in experiment [1] and over 3.16 µM in experiment [2].

Regarding `CCc1c(CN2CC(C(=O)O)C2)cccc1-c1nnc(-c2ccc(CC(C)C)c(C#N)c2)s1` [Example 9, 1-[(3-{5-[3-cyano-4-(2-methylpropyl)phenyl]-1,3,4-thiadiazol-2-yl}-2-ethylphenyl)methyl]-3-azetidinecarboxylic acid trifluoroacetate], the results for the EC50 in experiment [1] and in experiment [2] were under 0.001 µM and over 10 µM, respectively.

Consider `CCc1c(CCN2CC(C(=O)O)C2)cccc1-c1nnc(-c2ccc(CC(C)C)c(C#N)c2)s1` [Example 10, 1-[2-(3-{5-[3-cyano-4-(2-methylpropyl)phenyl]-1,3,4-thiadiazol-2-yl}-2-ethylphenyl)ethyl]-3-azetidinecarboxylic acid], for which the EC50 in experiment [1] is under 0.001 µM; in experiment [2], over 3.16 µM.

On to `CCc1c(CCN2CCC(C(=O)O)CC2)cccc1-c1nnc(-c2ccc(CC(C)C)c(C#N)c2)s1` [Example 11, 1-[2-(3-{5-[3-cyano-4-(2-methylpropyl)phenyl]-1,3,4-thiadiazol-2-yl}-2-ethylphenyl)ethyl]-4-piperidinecarboxylic acid], for which the EC50 in experiment [1] is under 0.001 µM; in experiment [2], over 3.16 µM.

Turning to `CCc1c(CCN2CCC(C(=O)O)C2)cccc1-c1nnc(-c2ccc(OC(C)C)c(Cl)c2)s1` (centres unmarked) [Example 12, 1-{2-[3-(5-{3-chloro-4-[(1-methylethyl)oxy]phenyl}-1,3,4-thiadiazol-2-yl)-2-ethylphenyl]ethyl}-3-pyrrolidinecarboxylic acid trifluoroacetate], the EC50 in experiment [1] was under 0.001 µM; in experiment [2], over 3.16 µM.

Take `COc1c(CCN2CCC(C(=O)O)CC2)cc(F)cc1-c1nnc(-c2ccc(OC(C)C)c(C(F)(F)F)c2)s1` [Example 13, 1-{2-[5-fluoro-3-{5-[4-[(1-methylethyl)oxy]-3-(trifluoromethyl)phenyl]-1,3,4-thiadiazol-2-yl}-2-(methyloxy)phenyl]ethyl}-4-piperidinecarboxylic acid]: the EC50 was under 0.1 µM in experiment [1] and over 10 µM in experiment [2].

Turning to `COc1c(CCN2CC(C(=O)O)C2)cc(F)cc1-c1nnc(-c2ccc(OC(C)C)c(C(F)(F)F)c2)s1` [Example 14, 1-{2-[5-fluoro-3-{5-[4-[(1-methylethyl)oxy]-3-(trifluoromethyl)phenyl]-1,3,4-thiadiazol-2-yl}-2-(methyloxy)phenyl]ethyl}-3-azetidinecarboxylic acid], the values for the EC50 in experiment [1] and in experiment [2] were at most 0.01 µM and over 10 µM, respectively.

For the compound `COc1c(CCN2CC(C(=O)O)C2)cc(F)cc1-c1nnc(-c2ccc(CC(C)C)c(C#N)c2)s1` [Example 15, 1-{2-[3-{5-[3-cyano-4-(2-methylpropyl)phenyl]-1,3,4-thiadiazol-2-yl}-5-fluoro-2-(methyloxy)phenyl]ethyl}-3-azetidinecarboxylic acid], the EC50 in experiment [1] was at most 0.01 µM; in experiment [2] it was over 10 µM.

For the compound `CCc1c(CN2CC(C(=O)O)C2)cccc1-c1nsc(-c2ccc(OC(C)C)c(C#N)c2)n1` [Example 17, 1-{[3-(5-{3-cyano-4-[(1-methylethyl)oxy]phenyl}-1,2,4-thiadiazol-3-yl)-2-ethylphenyl]methyl}-3-azetidinecarboxylic acid trifluoroacetate], the EC50 is at most 0.01 µM in experiment [1] and over 3.16 µM in experiment [2].

For the compound `CCc1c(CN2CCC(C(=O)O)CC2)cccc1-c1nsc(-c2ccc(OC(C)C)c(C(F)(F)F)c2)n1` [Example 18, 1-[(2-ethyl-3-{5-[4-[(1-methylethyl)oxy]-3-(trifluoromethyl)phenyl]-1,2,4-thiadiazol-3-yl}phenyl)methyl]-4-piperidinecarboxylic acid trifluoroacetate], the EC50 in experiment [1] is under 0.1 µM; in experiment [2] it was over 3.16 µM.

For the compound `CCc1c(CCN2CC(C(=O)O)C2)cccc1-c1nsc(-c2ccc(OC(C)C)c(C#N)c2)n1` [Example 26, 1-{2-[3-(5-{3-cyano-4-[(1-methylethyl)oxy]phenyl}-1,2,4-thiadiazol-3-yl)-2-ethylphenyl]ethyl}-3-azetidinecarboxylic acid trifluoroacetate], the EC50 in experiment [1] is under 0.001 µM; in experiment [2] it was over 3.16 µM.

For `CCc1c(CN2CC(C(=O)O)C2)cccc1-c1cnc(-c2ccc(OC(C)C)c(C(F)(F)F)c2)s1` [Example 31, 1-[(2-ethyl-3-{2-[4-[(1-methylethyl)oxy]-3-(trifluoromethyl)phenyl]-1,3-thiazol-5-yl}phenyl)methyl]-3-azetidinecarboxylic acid], the results for the EC50 in experiment [1] and in experiment [2] were under 0.001 µM and over 3.16 µM, respectively.

On to `CCc1c(CN2CCCC(C(=O)O)C2)cccc1-c1cnc(-c2ccc(OC(C)C)c(C#N)c2)s1` (centres unmarked) [Example 86], for which the EC50 in experiment [2] is over 10 µM.

As for `CCc1c(CCN2CCC[C@@H]2C(=O)O)cccc1-c1cnc(-c2ccc(OC(C)C)c(C#N)c2)s1` [Example 89], in experiment [2], the EC50 was over 10 µM.

In the case of `CCc1c(-c2nnc(-c3ccc(OC(C)C)c(Cl)c3)s2)cccc1C1CCN(CCC(=O)O)CC1` [Example 95, 3-{4-[3-(5-{3-chloro-4-[(1-methylethyl)oxy]phenyl}-1,3,4-thiadiazol-2-yl)-2-ethylphenyl]-1-piperidinyl}propanoic acid trifluoroacetate], in experiment [2], the EC50 was over 3.16 µM.

Take `CCc1c(-c2nnc(-c3ccc(OC(C)C)c(Cl)c3)s2)cccc1C1CCN(CCCC(=O)O)CC1` [Example 97, 4-{4-[3-(5-{3-chloro-4-[(1-methylethyl)oxy]phenyl}-1,3,4-thiadiazol-2-yl)-2-ethylphenyl]-1-piperidinyl}butanoic acid trifluoroacetate]: in experiment [2], the EC50 is over 3.16 µM.
